# Active and inactive are the calls of the source. No cut-off for these calls is given here.
# Tests used:
# Assay type in all cases: functional, tissue-based
# [1] = molecular target: Substance-P receptor (Cavia porcellus) (UniProt P30547); test: Antagonist activity at NK1 receptor in guinea pig trachea as inhibition of ASM-SP-induced bronchoconstriction relative to control; parameters: scale not given: the % may be the effect or the level left
# [2] = molecular target: Substance-P receptor (Cavia porcellus) (UniProt P30547); test: Antagonist activity at NK1 receptor in guinea pig trachea as inhibition of ASM-SP-induced bronchoconstriction
# [3] = molecular target: T1, Substance-K receptor (Cavia porcellus) (UniProt Q64077); test: Antagonist activity at NK2 receptor in guinea pig trachea as inhibition of [beta-Ala8]NKA(4-10)-induced bronchoconstriction relative to control; parameters: scale not given: the % may be the effect or the level left
# T1 sequence (whole entry): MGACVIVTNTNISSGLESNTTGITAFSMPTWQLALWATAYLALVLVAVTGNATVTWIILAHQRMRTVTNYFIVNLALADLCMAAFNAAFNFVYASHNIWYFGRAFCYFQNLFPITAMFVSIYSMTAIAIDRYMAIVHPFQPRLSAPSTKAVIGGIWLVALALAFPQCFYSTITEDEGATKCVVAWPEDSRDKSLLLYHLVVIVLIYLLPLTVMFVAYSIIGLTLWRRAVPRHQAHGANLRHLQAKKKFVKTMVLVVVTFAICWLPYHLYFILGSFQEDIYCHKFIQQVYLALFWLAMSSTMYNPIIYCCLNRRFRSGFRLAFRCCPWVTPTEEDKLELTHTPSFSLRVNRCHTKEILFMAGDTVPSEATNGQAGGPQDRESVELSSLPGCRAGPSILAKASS
# [4] = molecular target: T1, Substance-K receptor (Cavia porcellus); test: Antagonist activity at NK2 receptor in guinea pig trachea as inhibition of [beta-Ala8]NKA(4-10)-induced bronchoconstriction
# [5] = molecular target: Substance-P receptor (Cavia porcellus) (UniProt P30547); test: Antagonist activity at NK1 receptor in guinea pig trachea as inhibition of ASM-SP-induced bronchoconstriction up to 1 uM
# [6] = molecular target: T1, Substance-K receptor (Cavia porcellus); test: Antagonist activity at NK2 receptor in guinea pig trachea as inhibition of [beta-Ala8]NKA(4-10)-induced bronchoconstriction up to 1 uM
# Substance-P receptor (Cavia porcellus), sequence (P30547 whole entry): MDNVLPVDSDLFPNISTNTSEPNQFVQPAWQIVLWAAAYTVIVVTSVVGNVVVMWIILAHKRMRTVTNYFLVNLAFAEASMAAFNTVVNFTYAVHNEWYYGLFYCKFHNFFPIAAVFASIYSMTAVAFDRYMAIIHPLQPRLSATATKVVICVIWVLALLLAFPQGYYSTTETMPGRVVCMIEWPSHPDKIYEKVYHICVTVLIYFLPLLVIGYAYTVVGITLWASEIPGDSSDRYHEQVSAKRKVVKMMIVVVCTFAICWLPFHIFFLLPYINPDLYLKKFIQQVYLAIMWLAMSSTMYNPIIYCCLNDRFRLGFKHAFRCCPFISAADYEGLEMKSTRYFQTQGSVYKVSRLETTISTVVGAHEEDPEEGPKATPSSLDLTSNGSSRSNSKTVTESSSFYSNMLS
Compound,Activity [1] [%],pKb [2],Activity [3] [%],pKb [4],Activity [5],Activity [6]
CN(C(=O)c1cc(C(F)(F)F)cc(C(F)(F)F)c1)[C@@H](/C=C/C(=O)N[C@@H]1CCCCNC1=O)Cc1ccc(Cl)c(Cl)c1,89.4,9.2,97,7.43,,
CN(C(=O)c1cc([N+](=O)[O-])cc([N+](=O)[O-])c1)[C@@H](/C=C/C(=O)N[C@@H]1CCCCNC1=O)Cc1ccc(Cl)c(Cl)c1,96.1,8.4,96.1,7.87,,
CN(C(=O)c1cc(N=C=S)cc(N=C=S)c1)[C@@H](/C=C/C(=O)N[C@@H]1CCCCNC1=O)Cc1ccc(Cl)c(Cl)c1,,,,,inactive,inactive
CN(C(=O)c1cc(NC(=O)CBr)cc(NC(=O)CBr)c1)[C@@H](/C=C/C(=O)N[C@@H]1CCCCNC1=O)Cc1ccc(Cl)c(Cl)c1,,,,,inactive,inactive
CC(=O)Nc1cc(NC(C)=O)cc(C(=O)N(C)[C@@H](/C=C/C(=O)N[C@@H]2CCCCNC2=O)Cc2ccc(Cl)c(Cl)c2)c1,,,,,inactive,inactive
CN(C(=O)c1cc(N)cc(N)c1)[C@@H](/C=C/C(=O)N[C@@H]1CCCCNC1=O)Cc1ccc(Cl)c(Cl)c1,,,,,inactive,inactive
COC(=S)Nc1cc(NC(=S)OC)cc(C(=O)N(C)[C@@H](/C=C/C(=O)N[C@@H]2CCCCNC2=O)Cc2ccc(Cl)c(Cl)c2)c1,,,,,inactive,inactive
